# Patent publication US7964629B2, “Inhibitors of isoprenylcysteine carboxyl methyltransferase” (Duke Universtiy, priority 2005, dated 2011)
# Where two headings read alike, the source gives them in different places.
# What was measured:
# [1] = test system: p42/44 MAPK phosphorylation in DKOB8 cells expressing GFP-Icmt; experiment: EGF-stimulated MAPK activation in Icmt-overexpressing cells; type: cell-based; conditions: 5 μM, three days, reduced-serum media; Icmt activity elevated 4-fold
# Method: FIGS. 4A-4C. Overexpression of Icmt rescues EGF-stimulated MAPK activation and anchorage-independent growth in cysmethynil-treated cells. FIG. 4A. Creation of cell lines stably overexpressing Icmt. DKOB8 cells were engineered to stably express either GFP alone or a GFP-Icmt fusion protein. Membrane fractions from GFP and GFP-ICMT expressing lines were assayed for Icmt activity using the BFC assay. FIG. 4B. Overexpression of Icmt restores EGF-stimulated MAPK activation in cysmethynil-treated cells. […] Where indicated, cells were treated with EGF for the final 10 min prior to harvesting. Cell lysates containing equal amounts of protein were resolved on a 13% SDS-polyacrylamide gel and probed with antiphospho-p42/44 MAPK or, as a control, antiphospho NFκB antibody as indicated. FIG. 4C. […] After 3 weeks of growth, colonies were stained with MTT and imaged.
# Half of the wells were then treated with EGF (10 ng/ml) and half with vehicle for 10 min. Cells were rinsed with PBS and harvested in SDS-PAGE loading buffer. Total cell lysates (30 μg protein) were resolved on 4-20% Tris-glycine polyacrylamide gels (Invitrogen). Proteins were transferred to nitrocellulose and probed with a mix of anti-phospho-Akt and anti-phospho-p42/44 MAPK antibodies, or with anti-tubulin or anti-phospho NFκB antibody (Cell Signaling Technology) as indicated. […]
# [2] = test system: p42/44 MAPK phosphorylation in DKOB8 colon cancer cells; experiment: Phosphoprotein analysis: EGF-stimulated p42/44 MAPK; type: cell-based; conditions: 1 μM, three days, 1% serum, EGF 10 min
# Method: (§1) FIGS. 3A and 3B. Impact of cysmethynil treatment on Ras localization and signaling. FIG. 3A. Mislocalization of GFP Ras in cysmethynil treated cells. […] Live cells were imaged on a spinning disk confocal microscope. FIG. 3B. Impact of cysmethynil treatment on EGF-stimulated protein phosphorylation. […] Where indicated, cells were treated with EGF for the final 10 min prior to harvesting. Cell lysates containing equal amounts of protein were resolved on a 13% SDS-polyacrylamide gel and probed with antiphospho-Akt, antiphospho-p42/44 MAPK or anti-β-tubulin antibody as indicated. […] Half of the wells were then treated with EGF (10 ng/ml) and half with vehicle for 10 min. Cells were rinsed with PBS and harvested in SDS-PAGE loading buffer. Total cell lysates (30 μg protein) were resolved on 4-20% Tris-glycine polyacrylamide gels (Invitrogen). Proteins were transferred to nitrocellulose and probed with a mix of anti-phospho-Akt and anti-phospho-p42/44 MAPK antibodies, or with anti-tubulin or anti-phospho NFκB antibody (Cell Signaling Technology) as indicated. Visualization was performed with alkaline phosphatase (Promega, Madison, Wis.) as per the manufacturer's instructions.
# [3] = test system: Akt phosphorylation in DKOB8 colon cancer cells; experiment: Phosphoprotein analysis: EGF-stimulated Akt; type: cell-based; conditions: 1 μM, three days, 1% serum, EGF 10 min
# Method: as §1
# [4] = test system: RhoA in MDA-MB-231 breast cancer cells; experiment: Immunoblot of steady-state Rho level; type: cell-based; conditions: 20 μM, 6 day treatment
# Method: (§2) The impact of Icmt inhibition on function of the geranylgeranylated GTPases Rho and Rac in cells has been examined. This study was carried out in MD-MBA-231 breast cancer cells. Tumorigenesis and metastatic behavior of these cells is dependent on high levels of Rho GTPases in particular. […] Cells were harvested and lysates containing equal amounts of protein were resolved by SDS-PAGE and subjected to immunoblot analysis with specific antibodies to RhoA (FIG. 7A), or Rac1 (FIG. 7B). As a control, immunoblot analysis for α-tubulin was carried out on all samples.
# [5] = test system: Icmt−/− mouse embryonic fibroblasts; experiment: Cell growth determination, Icmt-deficient fibroblasts; type: cell-based; conditions: 15, 20, 30 μM; 10% serum; six days
# Method: FIGS. 2A-2C. […] Media and drug were replaced daily, and cell growth was monitored for six days. Data represent the mean and standard deviation of four replicate wells. (FIG. 2A) Icmt^+/+ cells; (FIG. 2B) Icmt^−/− cells; (C) Icmt^−/− cells stably transfected with a gene expressing human ICMT (Icmt^−/−/ICMT cells).
# Cell growth assays were performed in a 96-well plate format. Briefly, 500 to 1000 cells were plated into 96-well plates. After the cells were allowed to attach for 24 h, media was removed and replaced with media containing either compound or vehicle. Media and drug were replaced every 24 h throughout the assay. Cell determinations were made at the times indicated in the respective figure by adding 19 μl of CellTiter 96 AqueousOne solution to each well followed by incubation of the plates in the dark at 37° C. for two hr after which the absorbance at 490 nm was read. Background absorbance from blank wells containing only media with compound or vehicle was subtracted from each test well. Typically, 3-6 replicate wells were employed for each point in each assay.
# recombinant human Icmt = biological target: T1, recombinant human Icmt (Homo sapiens, UniProt O60725); experiment: Icmt assay: [3H]methyl incorporation from [3H]AdoMet into BFC; type: biochemical
# T1 construct: recombinant baculovirus containing the entire open reading frame of the human Icmt cDNA; made in house; host or cells: Sf9 insect cells (baculovirus); membrane fraction used
# T1 sequence (O60725 whole entry): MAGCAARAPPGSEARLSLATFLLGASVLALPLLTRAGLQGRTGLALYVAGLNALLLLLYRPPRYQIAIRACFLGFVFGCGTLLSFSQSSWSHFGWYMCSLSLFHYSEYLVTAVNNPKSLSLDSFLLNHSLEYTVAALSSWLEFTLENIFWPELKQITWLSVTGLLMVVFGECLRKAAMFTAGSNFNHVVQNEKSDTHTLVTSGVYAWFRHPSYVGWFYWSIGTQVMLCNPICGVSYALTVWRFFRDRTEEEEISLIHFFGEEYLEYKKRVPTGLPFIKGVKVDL
# [6] = test system: α-tubulin in MDA-MB-231 breast cancer cells; experiment: Immunoblot of control protein α-tubulin; type: cell-based; conditions: 20 μM, 6 day treatment
# Method: as §2
structure (smiles),measurement,setting,value
"CCCCCCCCn1cc(CC(N)=O)c2cc(-c3cccc(C)c3)ccc21 [cysmethynil, 2-[5-(3-methylphenyl)-1-octyl-1H-indol-3-yl]acetamide]",blockade of EGF-stimulated MAPK activation,[1],protect the cells from cysmethynil blockade
same,EGF-induced increase in MAPK,[2],almost completely blocked
same,EGF-induced increase in Akt phosphorylation,[3],partially but not completely attenuated
same,Rho levels,[4],almost undetectable
same,cell growth,[5],largely unaffected
same,IC50,"recombinant human Icmt; BFC substrate, substrates and inhibitor premixed, reaction initiated by addition of enzyme, read-out: IC50 for Icmt inhibition",2400 nM
same,IC50,"recombinant human Icmt; Table 1, R1 substituent x scaffold matrix, read-out: IC50",2100 ± 900 nM
same,IC50,"recombinant human Icmt; Table 3, pre-incubation with Icmt for 30 min at 37° C., read-out: IC50 PI (converted)",290 nM
same,IC50,"recombinant human Icmt; Table 3, without pre-incubation of the enzyme with the compound, read-out: IC50 No PI",2100 ± 900 nM
same,IC50,"recombinant human Icmt; enzyme premixed with inhibitor and AdoMet for 15 min prior to initiation with BFC, read-out: IC50 for Icmt inhibition",< 200 nM
same,level of control protein α-tubulin,[6],only marginally affected
